Measurements from patent publication US20030003491A1, “Method for detecting or quantifying environmental hormones” (priority 2000, published 2003).

System: LH receptor (LH-R) mRNA expression in rat granulosa cells
Test: Microassay for dioxins using FSH-induced LH-R mRNA expression in rat granulosa cells (Northern blotting, densitometry)
Format: cell-based
Conditions: for amount of LH-R mRNA expressed relative to that without TCDD addition: normalised to GAPDH mRNA, N=3
Protocol: Rat granulosa cells were obtained from a juvenile female Wistar rat (purchased from Charles River Laboratories, Inc.) which had been injected with 2 mg of diethylstilbestrol (produced by Sigma Chemical Co.) dissolved in 0.1 ml of sesame oil once per day for 4 days. Specifically, the ovary of the juvenile female Wistar rat was removed and a hole was made in its follicle with a 25-gauge needle to take out granulosa cells. During this series of operations, the rat was treated according to the NIH guidelines (Biosafety in microbiological and biomedical laboratories). Then, the obtained granulosa cells were washed and centrifuged to collect them. The viability of the cells was determined by the known trypan blue exclusion method.
The obtained granulosa cells (viability: over 90%) were cultured in Ham's F-12/DME (1:1 vol/vol) (produced by Gibco Laboratories) containing 1.1 g/l NaHCO3, 40 mg/l gentamicin sulfate (produced by Sigma Chemical Co.), 1 mg/l Fungizone (produced by Gibco Laboratories) and 100 mg/l bovine serum albumin (BSA) on a collagen-coated plate in a moist atmosphere (5% CO2, 95% air) at 37° C. [Nakamura, M., et al., Endocrinology, 133, 538-544 (1993)]. The granulosa cells obtained by the culturing were used in Examples.
The rat granulosa cells obtained in Reference Example 1 (5×10^6 living cells) were cultured in 5 ml of a serum-free medium [Ham's F-12/DME (1:1 vol/vol)] on a plate of 60 mm diameter for 24 hours, and the resulting culture was allowed to stand separately in the presence of 30 ng/ml rat FSH (I-8) [obtained from National Hormone and Pituitary Distribution Program (Bethesda Md.)] and in the presence of FSH (30 ng/ml) and 2,3,7,8-tetrachlorodibenzop-dioxin (TCDD) [Sigma Chemical Co.] (1, 10 and 100 pmol/l). TCDD was used after being dissolved in dimethyl sulfoxide.
After culturing was stopped 24, 48 and 72 hours later, RNAs formed in the cells were extracted to obtain pellets of the RNA mixture according to the AGTC method [trade name: Isogen, produced by Nippon Gene Co., Ltd., Chomezynski, P. and Sacchi, N., Anal. Biochem., 162, 156-159 (1987)]. To inhibit RNase, 15 μg of the obtained pellets was dissolved in diethyl-pyrocarbonate-treated water. The resulting solution was subjected to denatured agarose gel electrophoresis and the RNAs were transferred to a nylon membrane (trade name: Biodyne, produced by ICN) to carry out Northern blotting analysis. A film (trade name: Kodak X-Omat, produced by Eastman Kodak Co.) was exposed to the nylon membrane according to the standard manual of a nucleic acid detection kit (produced by Boehringer Mannheim) for fluorescence detection using 2202 UnitroScan Laser Densitometer (produced by LKB Co., Ltd.) to determine the mRNAs.
Rat LH-R mRNA was prepared according to the description in Mol. Cell. Endocrinol., 82, 259-263 (1991). The obtained rat […] into the EcoRI site of Bluescript ks (+) vector, followed by subcloning and linearization with BglII [Nakamura, K., Nakamura, M., Igarashi, S., Miyamoto, K., Eto, Y., Ibuki, Y., and Minegishi, T., Endocrinology, 134, 2329-2335 (1994)]. Then, digoxigenin-labeled LH-R cRNA corresponding to nucleotide numbers 440 to 2560 of the rat LH-R mRNA was prepared by in vitro transcription using T3 RNA polymerase and an RNA-labeling kit.
Each of the rat LH-R mRNAs (5.4 kb) obtained in the above (1) was determined according to the luminescence intensity method. The luminescence intensity was measured with LKB 2202 UnitroScan Laser Densitometer (produced by LKB Co., Ltd.) using the probe prepared in the above (2).
The amount of each rat LH-R mRNA expressed was determined using the amount of GAPDH (glyceraldehyde 3-phosphate dehydrogenase) mRNA expressed as a reference value to obtain the relative value (%) based on the control [addition of only FSH (30 ng/ml)]. The data were expressed in terms of […] of the values obtained by carrying out culturing three times under the same conditions. […]

For `Clc1cc2c(cc1Cl)Oc1cc(Cl)c(Cl)cc1O2` [TCDD, 2,3,7,8-tetrachlorodibenzop-dioxin], the “expression of LH-R mRNA (Northern blotting)” value (1 pmol/l TCDD plus FSH 30 ng/ml, 48 hours) was “a little decrease”, the “expression of LH-R mRNA (Northern blotting)” value (10 pmol/l TCDD plus FSH 30 ng/ml, 48 hours) was “clearly inhibited” and the “amount of expressed LH-R mRNA versus FSH alone (Northern blotting)” value (10 pmol/l TCDD plus FSH 30 ng/ml, after 24 hours of standing) was “difference in the amount of expressed LH-R mRNA already appeared”. The “amount of LH-R mRNA expressed relative to that without TCDD addition” value (10 pmol/l TCDD plus FSH 30 ng/ml, after 24 hours) was “less than 50%”, the “amount of LH-R mRNA expressed relative to that without TCDD addition” value (10 pmol/l TCDD plus FSH 30 ng/ml, after 48 hours) was “less than 50%” and the “amount of LH-R mRNA expressed relative to that without TCDD addition” value (10 pmol/l TCDD plus FSH 30 ng/ml, after 72 hours) was “less than 50%”. For the same compound, the “concentration dependency of LH-R mRNA expression (densitometer)” value (1, 10, 100 pmol/l TCDD plus FSH 30 ng/ml, 48 hours) was “decreased in a manner dependent upon the amount of TCDD added”.
